Source: PubChem BioAssay AID330 (DTP/NCI, 2004)
Values joined by “and” are separate entries in the source; they are usually repeats but may differ in a detail not shown here. Equal values may be shown once. Inconclusive results and toxic doses are left out.

Test system: P388 leukemia ip, CD2F1 mice, survival T/C
Experiment: NCI In Vivo Anticancer Drug Screen. Data for tumor model P388 Leukemia (intraperitoneal) in CD2F1 (CDF1) mice
Settings: endpoint: median survival time, higher = longer survival
Method in brief: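 Mice carrying the transplanted tumor received test compound or vehicle. Survival was recorded in each group, and the value is the treated-group measurement divided by that of the vehicle-treated control group.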

[1] = dose: 50.0 mg/kg/injection, schedule: Q01DX005 (ip), vehicle: Klucel (hydroxypropylcellulose) (HPC)
[2] = dose: 200.0 mg/kg/injection, schedule: Q01DX005 (ip), vehicle: Klucel (hydroxypropylcellulose) (HPC)
[3] = dose: 100.0 mg/kg/injection, schedule: Q01DX001 (ip), vehicle: saline
[4] = dose: 200.0 mg/kg/injection, schedule: Q01DX001 (ip), vehicle: saline
[5] = dose: 400.0 mg/kg/injection, schedule: Q01DX001 (ip), vehicle: saline
[6] = dose: 50.0 mg/kg/injection, schedule: Q01DX009 (ip), vehicle: saline with Tween-80
[7] = dose: 60.0 mg/kg/injection, schedule: Q01DX005 (ip), vehicle: saline with Tween-80
[8] = dose: 120.0 mg/kg/injection, schedule: Q01DX005 (ip), vehicle: saline with Tween-80
[9] = dose: 240.0 mg/kg/injection, schedule: Q01DX005 (ip), vehicle: saline with Tween-80

SMILES: c1ccc(C2NCCS2)cc1 (stereo not drawn)
- T/C [1]: 100 % of control
- T/C (dose: 100.0 mg/kg/injection, schedule: Q01DX005 (ip), vehicle: Klucel (hydroxypropylcellulose) (HPC)): 104 % of control
- T/C [2]: 104 % of control

SMILES: COC(=O)C1(C)CCCC2(C)c3cc(OC(C)=O)c(C(C)C)cc3CCC12 (stereo not drawn)
- T/C [3]: 100 % of control
- T/C [4]: 106 % of control
- T/C [5]: 105 % of control

SMILES: NC(=O)N/N=C1\C(=O)N(c2ccc(S(N)(=O)=O)cc2)C(=O)C1C(=O)Nc1ccc(S(N)(=O)=O)cc1 (stereo not drawn)
- T/C (dose: 60.0 mg/kg/injection, schedule: Q01DX005 (ip), vehicle: saline): 106 % of control
- T/C (dose: 120.0 mg/kg/injection, schedule: Q01DX005 (ip), vehicle: saline): 102 % of control
- T/C (dose: 240.0 mg/kg/injection, schedule: Q01DX005 (ip), vehicle: saline): 102 % of control

SMILES: O=C1COC(c2ccccc2O)=NN1Cc1ccccc1
- T/C [6]: 94 % of control
- T/C (dose: 100.0 mg/kg/injection, schedule: Q01DX009 (ip), vehicle: saline with Tween-80): 92 % of control
- T/C (dose: 200.0 mg/kg/injection, schedule: Q01DX009 (ip), vehicle: saline with Tween-80): 99 % of control

SMILES: CCCn1c(CC)nc([N+](=O)[O-])c1Sc1ncn[nH]1
- T/C (dose: 25.0 mg/kg/injection, schedule: Q01DX005 (ip), vehicle: Klucel (hydroxypropylcellulose) (HPC)): 123 % of control
- T/C [1]: 108 % of control
- T/C [2]: 113 % of control

SMILES: NC(Cc1cnc[nH]1)C(=O)NO (stereo not drawn)
- T/C [3]: 94 % of control
- T/C [4]: 102 % of control
- T/C [5]: 94 % of control

SMILES: CCCCCCCCCCCCCCCCCc1cccc(O)c1
- T/C (dose: 12.5 mg/kg/injection, schedule: Q01DX009 (ip), vehicle: Klucel (hydroxypropylcellulose) (HPC)): 114 % of control
- T/C (dose: 25.0 mg/kg/injection, schedule: Q01DX009 (ip), vehicle: Klucel (hydroxypropylcellulose) (HPC)): 103 % of control
- T/C (dose: 50.0 mg/kg/injection, schedule: Q01DX009 (ip), vehicle: Klucel (hydroxypropylcellulose) (HPC)): 114 % of control

SMILES: Cc1cc(N2CCOCC2)nc(N2CCOCC2)c1C#N
- T/C (dose: 6.25 mg/kg/injection, schedule: Q01DX005 (ip), vehicle: saline with Tween-80): 100 % of control
- T/C (dose: 12.5 mg/kg/injection, schedule: Q01DX005 (ip), vehicle: saline with Tween-80): 108 % of control
- T/C (dose: 25.0 mg/kg/injection, schedule: Q01DX005 (ip), vehicle: saline with Tween-80): 99 % of control

SMILES: O=C(NCc1nc2ccccc2[nH]1)C(F)(F)F
- T/C (dose: 60.0 mg/kg/injection, schedule: Q01DX005 (ip), vehicle: Klucel (hydroxypropylcellulose) (HPC)): 103 % of control
- T/C (dose: 120.0 mg/kg/injection, schedule: Q01DX005 (ip), vehicle: Klucel (hydroxypropylcellulose) (HPC)): 105 % of control
- T/C (dose: 240.0 mg/kg/injection, schedule: Q01DX005 (ip), vehicle: Klucel (hydroxypropylcellulose) (HPC)): 104 % of control

SMILES: COC(=O)c1nc(N)nc(C(=O)OC)c1C(=O)Cc1ccccc1
- T/C [7]: 100 % of control
- T/C [8]: 103 % of control

SMILES: CS(C)=C1C(=O)C(=O)C(=S(C)C)C(=O)C1=O
- T/C [7]: 107 % of control
- T/C [8]: 104 % of control
- T/C [9]: 100 % of control

SMILES: NOCc1cccc(CON)c1
- T/C [6]: 91 % of control

SMILES: CC(=O)OC(C(=O)O)C(OC(C)=O)C(OC(C)=O)C(=O)O (stereo not drawn)
- T/C (dose: 50.0 mg/kg/injection, schedule: Q01DX009 (ip), vehicle: saline): 98 % of control
- T/C (dose: 100.0 mg/kg/injection, schedule: Q01DX009 (ip), vehicle: saline): 101 % of control
- T/C (dose: 200.0 mg/kg/injection, schedule: Q01DX009 (ip), vehicle: saline): 95 % of control

SMILES: CCOC(=O)C1(C)C(=O)CC2c3nc4ccccc4cc3CN2C1=O (stereo not drawn)
- T/C (dose: 100.0 mg/kg/injection, schedule: Q01DX009 (ip), vehicle: Klucel (hydroxypropylcellulose) (HPC)): 95 % of control
- T/C (dose: 200.0 mg/kg/injection, schedule: Q01DX009 (ip), vehicle: Klucel (hydroxypropylcellulose) (HPC)): 95 % of control
- T/C (dose: 400.0 mg/kg/injection, schedule: Q01DX009 (ip), vehicle: Klucel (hydroxypropylcellulose) (HPC)): 104 % of control

SMILES: CCOC(=O)C1=C(C(=O)c2ccc(C)cc2)C(c2c(Cl)cccc2Cl)C(C(=O)c2ccc(C)cc2)=C(C(=O)OCC)N1
- T/C (dose: 30.0 mg/kg/injection, schedule: Q01DX005 (ip), vehicle: saline with Tween-80): 104 % of control
- T/C [7]: 102 % of control
- T/C [8]: 104 % of control and 90 % of control
- T/C [9]: 88 % of control
